Assay results: patent US9604932B2 (priority 2013, dated 2017)

Columns and labels:
[1] = Plasma pharmacokinetics in sheep (release of R-100 from R-107), LCMS; assay type: in vivo; conditions: IV R-100 20 mg/kg bolus
Procedure: In the following two experiments, the pharmacokinetic of releasing R-100 from R-107, via R-105 that is the reduced form of R-100, was studied in vivo according to the protocol described herein.
100 μl aliquots plasma obtained from R-107-treated sheep or pig were thawed and 200 μl ice-cold ethanol was added to each 100 μl sample to precipitate protein. Samples were then vortexed, placed on ice for 10 minutes, and then spun down at room temperature for 15 minutes. A first 100 μl supernatant from each spun sample was withdrawn and placed in a labeled HPLC micro vial to which 300 μl MPA (LC mobile phase A) was added, and the vial contents were then mixed and submitted for LCMS analysis (kept at 4° C.). The concentration of R-107 was measured in this sample as was the concentration of R105. A second 100 μl supernatant from each spun sample was added to a labelled HPLC micro vial to which 300 μl MPA and 2 μl of Reducing solution (ascorbic acid, 1.0 mg/ml in water) were added. These vials were vortexed; incubated at 50° C. for 1 hour with gentle shaking; and were then cooled to 4° C. and submitted for LCMS analysis. This sample was analyzed for R105, i.e., reduced form of R-100, and the amount measured thus represents the sum of R-100 and R-105 originally present in the plasma. The concentration of R-100 can be calculated from that of the R-105 in the second sample minus that of R-105 in the first sample. However, the concentrations of R-105 were seen to be low (approximately 10% or less of those of R-100) and so the results reported below as R-100 are not corrected for R-105.
Sets of standards (R-100, R-105 and R-107) were prepared by spiking individually in pig plasma. 100 μl aliquots of these spiked plasma samples, after thawing, were included in the above extraction protocol.
Analysis method were carried out with an Agilent HPLC stack, with column eluate directed, via a diverter valve, into the source of an AB Sciex ‘Qstar Elite’ Hybrid TOF, high-resolution mass spectrometer. LC column: Phenomenex Kinetex C18 2.6u 100A, 2.1×50 mm. LC mobile phase A: H2O with 0.02% trifluoroacetic acid (TFA), 0.1% formic acid (HOF); Phase B: acetonitrile (ACN) with 0.02% TFA, 0.1% HOF. Mobile phase flow rate=500 μl/min. Injection size: 8 μl, via Agilent 1100 u-WPS autosampler. […]

[2] = cited from earlier work

CC1(C)CC(CO[N+](=O)[O-])C(C)(C)N1[O] (centres unmarked) [R-100, 3-nitratomethyl-2,2,5,5-tetramethylpyrrolidinyloxy, reference compound]
R-100 in plasma ([1]; 0 hrs post dose): 0 µg/mL | R-100 in plasma ([1]; 0.08 hrs post dose): 6.72 µg/mL | R-100 in plasma ([1]; 0.17 hrs post dose): 6.11 µg/mL | R-100 in plasma ([1]; 0.25 hrs post dose): 5.31 µg/mL | R-100 in plasma ([1]; 0.5 hrs post dose): 2.72 µg/mL | R-100 in plasma ([1]; 1 hrs post dose): 1.63 µg/mL | R-100 in plasma ([1]; 2 hrs post dose): 0.7 µg/mL | R-100 in plasma ([1]; 4 hrs post dose): 0.28 µg/mL | R-100 in plasma ([1]; 8 hrs post dose): 0.03 µg/mL | Solubility in organic solvents [2]: soluble in certain organic solvents such as dimethyl sulfoxide (DMSO) | Solubility in water [2]: highly insoluble in water
